Data from patent US6479435B1, “Diaryl ethers and processes for their preparation and herbicidal and desiccant compositions containing them” (ISK Americas Incorporated, priority 1997, dated 2002).

Legend:
Format in all cases: in vivo
[1] = tested on: Johnsongrass (Sorghum halepense, SORHA); assay: Pre-emerge greenhouse herbicide test, phytotoxicity rating; details: 14 days after application, rating scale 0-100
Excerpt: (§1) A standard greenhouse herbicide activity screening system was used to evaluate the herbicidal efficacy and crop safety of these test compounds. Six broadleaf weed species including redroot pigweed (Amaranthus retroflexus, AMARE), velvetleaf (Abutilon theophrasti, ABUTH), sicklepod (Cassia obtusifolia, CASOB), ivyleaf morningglory (Ipomoea hederacea, IPOHE), lambsquarters (Chenopodium album, CHEAL) and common ragweed (Ambrosia artemisiifolia L., AMBEL) were used as test species. Four grass weed species including green foxtail (Setaria viridis, SETVI), barnyardgrass (Echinochloa crusgalli, ECHCG), Johnsongrass (Sorghum halepense, SORHA), and large crabgrass (Digitaria sanguinalis, DIGSA) were also used. In addition, three crop species, field corn (Zea mays L., var. Dekalb 535, CORN), soybean (Glycine max L., var. Pella 86, SOY), and upland rice (Oryza sp., var.Tebonnet, RICE) were included.
(§2) All plants were grown in 10 cm square plastic pots which were filled with a sandy loam soil mix. For preemerge tests, seeds were planted one day prior to application of the test compounds. Immediately after application, test units of the pre-emerge applications were watered at the soil surface to incorporate the test materials. Subsequently, these test units were bottom-watered.
(§3) All test compounds were dissolved in acetone and applied to the test units in a volume of 187 l/ha. Test materials were applied at rates ranging from 125 g ai/ha to 1000 g ai/ha using a track sprayer equipped with a TJ8001E even flow flat fan spray nozzle. Plants were arranged on a shelf so that the top of the canopy (post-emerge) or top of the soil surface (pre-emerge) was 40-45 cm below the nozzle. Pressurized air was used to force the test solution through the nozzle as it was mechanically advanced (via electrically driven chain drive) over the top of all test plants/pots. This application simulates a typical commercial field herbicide application.
(§4) At 14 days after application of the test materials, phytotoxicity ratings were recorded. A rating scale of 0-100 was used as previously described in Research Methods in Weed Science, 2nd edition, B. Truelove, Ed., Southern Weed Science Society, Auburn University, Auburn, Ala., 1977. Briefly, “0” corresponds to no damage and “100” corresponds to complete death of all plants in the test unit. This scale was used both to determine efficacy against weed species and damage to crop species. Herbicide activity data for various compounds of this invention, which are shown by compound number in Tables 1-9, are shown in Tables 13 and 14.

[2] = tested on: barnyardgrass (Echinochloa crusgalli, ECHCG); assay: as above; details: 14 days after application, rating scale 0-100
Excerpt: as §1, §2, §3, §4

[3] = tested on: green foxtail (Setaria viridis, SETVI); assay: as above; details: 14 days after application, rating scale 0-100
Excerpt: as §1, §2, §3, §4

[4] = tested on: ivyleaf morningglory (Ipomoea hederacea, IPOHE); assay: as above; details: 14 days after application, rating scale 0-100
Excerpt: as §1, §2, §3, §4

[5] = tested on: lambsquarters (Chenopodium album, CHEAL); assay: as above; details: 14 days after application, rating scale 0-100
Excerpt: as §1, §2, §3, §4

[6] = tested on: large crabgrass (Digitaria sanguinalis, DIGSA); assay: as above; details: 14 days after application, rating scale 0-100
Excerpt: as §1, §2, §3, §4

[7] = tested on: redroot pigweed (Amaranthus retroflexus, AMARE); assay: as above; details: 14 days after application, rating scale 0-100
Excerpt: as §1, §2, §3, §4

[8] = tested on: sicklepod (Cassia obtusifolia, CASOB); assay: as above; details: 14 days after application, rating scale 0-100
Excerpt: as §1, §2, §3, §4

[9] = tested on: velvetleaf (Abutilon theophrasti, ABUTH); assay: as above; details: 14 days after application, rating scale 0-100
Excerpt: as §1, §2, §3, §4

[10] = tested on: field corn (Zea mays L., var. Dekalb 535, CORN); assay: Pre-emerge greenhouse test, crop damage rating; details: 14 days after application, rating scale 0-100
Excerpt: as §1, §2, §3, §4

[11] = tested on: upland rice (Oryza sp., var.Tebonnet, RICE); assay: Pre-emerge greenhouse test, crop damage rating; details: 14 days after application, rating scale 0-100
Excerpt: as §1, §2, §3, §4

[12] = tested on: soybean (Glycine max L., var. Pella 86, SOY); assay: Pre-emerge greenhouse test, crop damage rating; set-up: key to SOY crop damage rating: 0 = no damage, 100 = complete death of all plants; details: 14 days after application, rating scale 0-100
Excerpt: as §1, §2, §3, §4

[13] = tested on: Johnsongrass (Sorghum halepense, SORHA); assay: Post-emerge greenhouse herbicide test, phytotoxicity rating; details: 14 days after application, scale 0-100
Excerpt: as §1, §3
(§5) In the post-emerge test, a commercial non-ionic surfactant was also included (0.25% v/v) to enhance wetting of the leaf surfaces Qf target plants at rates ranging from 63 g ai/ha to 1000 g ai/ha. For post-emerge tests, seeds were planted 8-21 days prior to the test to allow emergence and good foliage development prior to application of the test substances. At the time of the post-emerge application, plants of all species were usually at the 2-3 leaf stage of development. Post-emerge test units were always bottom-watered.
as §4

[14] = tested on: barnyardgrass (Echinochloa crusgalli, ECHCG); assay: as above; details: 14 days after application, scale 0-100
Excerpt: as §1, §3, §5, §4

[15] = tested on: green foxtail (Setaria viridis, SETVI); assay: as above; details: 14 days after application, scale 0-100
Excerpt: as §1, §3, §5, §4

[16] = tested on: ivyleaf morningglory (Ipomoea hederacea, IPOHE); assay: as above; details: 14 days after application, scale 0-100
Excerpt: as §1, §3, §5, §4

[17] = tested on: lambsquarters (Chenopodium album, CHEAL); assay: as above; details: 14 days after application, scale 0-100
Excerpt: as §1, §3, §5, §4

[18] = tested on: large crabgrass (Digitaria sanguinalis, DIGSA); assay: as above; details: 14 days after application, scale 0-100
Excerpt: as §1, §3, §5, §4

[19] = tested on: redroot pigweed (Amaranthus retroflexus, AMARE); assay: as above; details: 14 days after application, scale 0-100
Excerpt: as §1, §3, §5, §4

[20] = tested on: sicklepod (Cassia obtusifolia, CASOB); assay: as above; details: 14 days after application, scale 0-100
Excerpt: as §1, §3, §5, §4

[21] = tested on: velvetleaf (Abutilon theophrasti, ABUTH); assay: as above; details: 14 days after application, scale 0-100
Excerpt: as §1, §3, §5, §4

[22] = tested on: field corn (Zea mays L., var. Dekalb 535, CORN); assay: Post-emerge greenhouse test, crop damage rating; details: 14 days after application, scale 0-100
Excerpt: as §1, §3, §5, §4

[23] = tested on: upland rice (Oryza sp., var.Tebonnet, RICE); assay: Post-emerge greenhouse test, crop damage rating; details: 14 days after application, scale 0-100
Excerpt: as §1, §3, §5, §4

[24] = tested on: soybean (Glycine max L., var. Pella 86, SOY); assay: Post-emerge greenhouse test, crop damage rating; set-up: key to crop damage rating SOY: 0-100 scale: 0 = no damage, 100 = complete death of all plants; details: 14 days after application, scale 0-100
Excerpt: as §1, §3, §5, §4

With `Nn1c(C(F)(F)F)cc(=O)n(-c2cc(Oc3cccc(F)n3)c(Cl)cc2F)c1=O` [Compound 9-4, 1-Amino-3-[4-chloro-2-fluora-5-(6-fluoro-2-pyridyloxy)phenyl]-6-trifluoromethyl-1,2,3,4-tetrahydropyrimidine-2,4-dione] the SORHA phytotoxicity rating ([1]; Rate 125 g al/ha) was 99, the SORHA phytotoxicity rating ([1]; Rate 500 g al/ha) was 100 and the ECHCG phytotoxicity rating ([2]; Rate 125 g al/ha) was 100. For the same molecule, the ECHCG phytotoxicity rating ([2]; Rate 500 g al/ha) was 100, the SETVI phytotoxicity rating ([3]; Rate 125 g al/ha) was 100 and the SETVI phytotoxicity rating ([3]; Rate 500 g al/ha) was 100. The IPOHE phytotoxicity rating ([4]; Rate 125 g al/ha) was 100, the IPOHE phytotoxicity rating ([4]; Rate 500 g al/ha) was 100 and the CHEAL phytotoxicity rating ([5]; Rate 125 g al/ha) was 100. It also gave a CHEAL phytotoxicity rating ([5]; Rate 500 g al/ha) of 100, a DIGSA phytotoxicity rating ([6]; Rate 125 g al/ha) of 100 and a DIGSA phytotoxicity rating ([6]; Rate 500 g al/ha) of 100. It also gave an AMARE phytotoxicity rating ([7]; Rate 125 g al/ha) of 100, an AMARE phytotoxicity rating ([7]; Rate 500 g al/ha) of 100 and a CASOB phytotoxicity rating ([8]; Rate 125 g al/ha) of 60. The CASOB phytotoxicity rating ([8]; Rate 500 g al/ha) was 100, the ABUTH phytotoxicity rating ([9]; Rate 125 g al/ha) was 100 and the ABUTH phytotoxicity rating ([9]; Rate 500 g al/ha) was 100. The “CORN crop damage rating” value ([10]; Rate 125 g al/ha) was 60, the “CORN crop damage rating” value ([10]; Rate 500 g al/ha) was 95 and the “RICE crop damage rating” value ([11]; Rate 125 g al/ha) was 40. The “RICE crop damage rating” value ([11]; Rate 500 g al/ha) was 99, the “SOY crop damage rating” value ([12]; Rate 125 g al/ha) was 80 and the “SOY crop damage rating” value ([12]; Rate 500 g al/ha) was 95. For the same molecule, the “phytotoxicity rating SORHA” value ([13]; rate 63 g ai/ha) was 70, the “phytotoxicity rating SORHA” value ([13]; rate 500 g ai/ha) was 98 and the “phytotoxicity rating ECHCG” value ([14]; rate 63 g ai/ha) was 70. The “phytotoxicity rating ECHCG” value ([14]; rate 500 g ai/ha) was 100, the “phytotoxicity rating SETVI” value ([15]; rate 63 g ai/ha) was 30 and the “phytotoxicity rating SETVI” value ([15]; rate 500 g ai/ha) was 95. For the same molecule, the “phytotoxicity rating IPOHE” value ([16]; rate 63 g ai/ha) was 100, the “phytotoxicity rating IPOHE” value ([16]; rate 500 g ai/ha) was 100 and the “phytotoxicity rating CHEAL” value ([17]; rate 63 g ai/ha) was 80. For the same molecule, the “phytotoxicity rating CHEAL” value ([17]; rate 500 g ai/ha) was 100, the “phytotoxicity rating DIGSA” value ([18]; rate 63 g ai/ha) was 10 and the “phytotoxicity rating DIGSA” value ([18]; rate 500 g ai/ha) was 95. The “phytotoxicity rating AMARE” value ([19]; rate 63 g ai/ha) was 95, the “phytotoxicity rating AMARE” value ([19]; rate 500 g ai/ha) was 100 and the “phytotoxicity rating CASOB” value ([20]; rate 63 g ai/ha) was 90. The “phytotoxicity rating CASOB” value ([20]; rate 500 g ai/ha) was 100, the “phytotoxicity rating ABUTH” value ([21]; rate 63 g ai/ha) was 100 and the “phytotoxicity rating ABUTH” value ([21]; rate 500 g ai/ha) was 100. For the same molecule, the “crop damage rating CORN” value ([22]; rate 63 g ai/ha) was 40, the “crop damage rating CORN” value ([22]; rate 500 g ai/ha) was 80 and the “crop damage rating RICE” value ([23]; rate 63 g ai/ha) was 50. The “crop damage rating RICE” value ([23]; rate 500 g ai/ha) was 70, the “crop damage rating SOY” value ([24]; rate 63 g ai/ha) was 95 and the “crop damage rating SOY” value ([24]; rate 500 g ai/ha) was 100.
